≈ marks a conversion by molar mass, not a printed value. Structures can show the parent of a compound that is named as a salt. Where two headings read alike, the source gives them in different places. One block for each compound: values may come before it.
Columns and labels:
PPARα = PPARα (Homo sapiens, UniProt Q07869); assay: AlphaScreen nuclear receptor profile (agonist mode), PPARα; assay type: biochemical
[1] = Critical micellar concentration; assay type: physicochemical; settings: in […] NaCl water solution
CYP2D6 = target: T1, CYP2D6 (Homo sapiens, UniProt P10635); assay: CYP450 screening, fluorescent signal, recombinant baculosomes, CYP2D6; assay type: in vitro ADME
T1 construct: purchased Invitrogen; host or cells: baculosomes (insect-cell microsomes)

dTGR5 = dTGR5 (Canis lupus familiaris, UniProt A0A8I3PZA6); assay: TGR5 cross species activity, dTGR5; assay type: cell-based, dog; settings: Table 3, cross species
CAR = CAR (Homo sapiens, UniProt Q14994); assay: AlphaScreen nuclear receptor profile (agonist mode), CAR; assay type: biochemical
RAR = assay: AlphaScreen nuclear receptor profile (agonist mode), RAR; assay type: biochemical
LXRα = LXRα (Homo sapiens, UniProt Q13133); assay: AlphaScreen nuclear receptor profile (agonist mode), LXRα; assay type: biochemical
ER = assay: AlphaScreen nuclear receptor profile (agonist mode), ER; assay type: biochemical
HepG2 cells [2] = assay: In vitro cytotoxicity, LDH release; assay type: cell-based; settings: Homo sapiens
rTGR5 = rTGR5 (Rattus norvegicus, UniProt Q80T02); assay: TGR5 cross species activity, rTGR5; assay type: cell-based; settings: Table 3, cross species
TR = assay: AlphaScreen nuclear receptor profile (agonist mode), TR; assay type: biochemical
rFXR = rFXR (Rattus norvegicus, UniProt Q62735); assay: FXR cross species activity, rFXR; assay type: biochemical; settings: Table 2, cross species
CYP2C19 = target: T2, CYP2C19 (Homo sapiens, UniProt P33261); assay: CYP450 screening, fluorescent signal, recombinant baculosomes, CYP2C19; assay type: in vitro ADME
T2 construct: purchased Invitrogen; host or cells: baculosomes (insect-cell microsomes)

Human FXR = target: T3, Human FXR (Homo sapiens, UniProt Q96RI1); assay: AlphaScreen assay, FXR-LBD-GST / SRC-1 LXXLL peptide recruitment; assay type: biochemical
T3 construct: Human FXR-LBD-GST was incubated
T3 sequence (Q96RI1 262-486 limits assumed): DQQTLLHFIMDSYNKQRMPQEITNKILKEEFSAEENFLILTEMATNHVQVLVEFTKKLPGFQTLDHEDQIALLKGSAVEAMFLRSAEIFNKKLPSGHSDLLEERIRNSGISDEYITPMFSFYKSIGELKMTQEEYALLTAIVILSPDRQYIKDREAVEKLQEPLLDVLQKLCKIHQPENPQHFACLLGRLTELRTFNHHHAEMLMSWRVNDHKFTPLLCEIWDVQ

LXRβ = LXRβ (Homo sapiens, UniProt P55055); assay: AlphaScreen nuclear receptor profile (agonist mode), LXRβ; assay type: biochemical
hERG potassium channel = hERG potassium channel (Homo sapiens, UniProt Q12809); assay: biochemical
PPARγ = PPARγ (Homo sapiens, UniProt P37231); assay: AlphaScreen nuclear receptor profile (agonist mode), PPARγ; assay type: biochemical
PPARδ = PPARδ (Homo sapiens, UniProt Q03181); assay: AlphaScreen nuclear receptor profile (agonist mode), PPARδ; assay type: biochemical
From the text: Using the AlphaScreen assay, the selectivity of Compound 1 against the following nuclear receptors involved in the metabolic pathways can be evaluated: LXRα, LXRβ, PXR, CAR, […], PPARδ, PPARγ, RAR, RARα, VDR, TR, PR, RXRα, GR, and ER.

Human TGR5 = target: T4, Human TGR5 (Homo sapiens, UniProt Q8TDU6); assay: HTR-FRET intracellular cAMP assay in NCI-H716 cells; assay type: cell-based
T4 construct: Human enteroendocrine NCI-H716 cells constitutively expressing TGR5; endogenous in cells; host or cells: NCI-H716
T4 sequence (Q8TDU6 1-330): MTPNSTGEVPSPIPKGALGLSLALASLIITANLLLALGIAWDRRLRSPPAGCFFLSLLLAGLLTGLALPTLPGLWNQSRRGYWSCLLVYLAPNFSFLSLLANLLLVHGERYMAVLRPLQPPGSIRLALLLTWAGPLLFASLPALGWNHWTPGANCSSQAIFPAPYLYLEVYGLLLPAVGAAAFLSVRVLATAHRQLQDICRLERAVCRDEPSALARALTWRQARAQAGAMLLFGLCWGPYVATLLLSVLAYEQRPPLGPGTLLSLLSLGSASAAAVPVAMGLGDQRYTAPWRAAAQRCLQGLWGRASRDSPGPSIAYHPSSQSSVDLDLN

PR = PR (Homo sapiens, UniProt P06401); assay: AlphaScreen nuclear receptor profile (agonist mode), PR; assay type: biochemical
PXR = PXR (Homo sapiens, UniProt O75469); assay: AlphaScreen nuclear receptor profile (agonist mode), PXR; assay type: biochemical
mFXR = mFXR (Mus musculus, UniProt Q60641); assay: FXR cross species activity, mFXR; assay type: biochemical; settings: Table 2, cross species
HepG2 cells [3] = assay: In vitro cytotoxicity, cell viability by ATP content; assay type: cell-based; settings: Homo sapiens, HepG2, read-out: ATP Content EC50
[4] = 1-octanol-water partition coefficient (LogPA-); assay type: physicochemical; settings: bile acids as ionized species
Procedure: (§1) Physiochemical properties of Compound 1 such as water solubility, critical micellar concentration, surface tension, and LogPA were determined using methods known in the art.

CYP2C9 = target: T5, CYP2C9 (Homo sapiens, UniProt P11712); assay: CYP450 screening, fluorescent signal, recombinant baculosomes, CYP2C9; assay type: in vitro ADME
T5 construct: purchased Invitrogen

GR = GR (Homo sapiens, UniProt P04150); assay: AlphaScreen nuclear receptor profile (agonist mode), GR; assay type: biochemical
mTGR5 = mTGR5 (Mus musculus, UniProt Q80SS6); assay: TGR5 cross species activity, mTGR5; assay type: cell-based; settings: Table 3, cross species
VDR = VDR (Homo sapiens, UniProt P11473); assay: AlphaScreen nuclear receptor profile (agonist mode), VDR; assay type: biochemical
CYP1A2 = target: T6, CYP1A2 (Homo sapiens, UniProt P05177); assay: CYP450 screening, fluorescent signal, recombinant baculosomes, CYP1A2; assay type: in vitro ADME
T6 construct: purchased Invitrogen

Pgp = target: T7, Pgp (Homo sapiens, UniProt P08183); assay: Pgp-Glo Assay, Pgp ATPase activity; assay type: in vitro ADME; settings: read-out: Pgp Substrate EC50
T7 construct: purchased V3591 and V3601
From the text: The impact of Compound 1 on Pgp ATPase activity was examined in Pgp-GloTM Assay (Technical Bulletin; Pgp-GloTM Assay Systems Instructions for Use of Products […] and […]; Revised November 2015) according to the manufacturer's standard protocol.

CYP2E1 = target: T8, CYP2E1 (Homo sapiens, UniProt P05181); assay: CYP450 screening, fluorescent signal, recombinant baculosomes, CYP2E1; assay type: in vitro ADME
T8 construct: purchased Invitrogen; host or cells: baculosomes (insect-cell microsomes)
From the text: To evaluate the potential of Compound 1 for drug-drug interactions, the six main CYP450 isoforms (CYP1A2, CYP2C9, CYP2C19, CYP2D6, CYP2E1, CYP3A4) are investigated (Obach, et al., J Pharmacol. Exp. Ther, 2006, 316, 336-348).

RXRα = RXRα (Homo sapiens, UniProt P19793); assay: AlphaScreen nuclear receptor profile (agonist mode), RXRα; assay type: biochemical
CYP3A4 = target: T9, CYP3A4 (Homo sapiens, UniProt P08684); assay: CYP450 screening, fluorescent signal, recombinant baculosomes, CYP3A4; assay type: in vitro ADME
T9 construct: purchased Invitrogen

dFXR = target: T10, dFXR (Canis lupus familiaris, UniProt A0A8I3N2S7); assay: FXR cross species activity, dFXR; assay type: biochemical, dog; settings: Table 2, cross species
T10 construct: printed for the human protein only; fused on or other part: GST tag, printed only for the human construct

Water solubility = assay type: physicochemical; settings: BA as protonated species, hs = highly soluble, read-out: Ws (water solubility)
Procedure: as §1

Surface tension at CMC = assay type: physicochemical; settings: in […] NaCl water solution; in mN/m (unit assumed)
Procedure: as §1

Structure (SMILES): CC[C@H]1[C@@H](O)[C@@H]2[C@H]([C@@H](O)C[C@]3(C)[C@@H]([C@H](C)CCC(=O)O)CC[C@@H]23)[C@@]2(C)CCCC[C@@H]12 [Compound 1, 7α,11β-dihydroxy-6α-ethyl-5β-cholan-24-oic acid]
EC50 (PPARα): > 300 µM | CMC (Critical Micellar Concentration) [1]: 2.0 mM | IC50 (CYP2D6): > 10 µM | EC50 (dTGR5): > 200 µM | EC50 (CAR): > 300 µM | EC50 (RAR): > 300 µM | EC50 (LXRα): > 300 µM | EC50 (ER): > 300 µM | EC50 (HepG2 cells [2]): > 300 µM | EC50 (rTGR5): > 200 µM | EC50 (TR): > 300 µM | EC50 (rFXR): 0.49 ± 0.01 µM | IC50 (CYP2C19): > 10 µM | FXR activation, in words (Human FXR): potent and selective activator | EC50 (Human FXR; Table 1, Human FXR-LBD-GST with biotinylated LXXLL SRC-1 peptide, quantity not named in head (EC50 per Table 2)): 0.14 ± 0.04 µM | FXR activation, in words (Human FXR; listed as compound of this invention): potent FXR agonists | EC50 (LXRβ): > 300 µM | IC50 (hERG potassium channel): > 100 µM | EC50 (PPARγ): > 300 µM | EC50 (PPARδ): > 300 µM | selectivity for FXR over TGR5, in words (Human TGR5): high selectivity for FXR over TGR5 | EC50 (Human TGR5; Table 1, intracellular cAMP, NCI-H716 cells, quantity not named in head (EC50 per Table 3), read-out: HTR-FRET (cAMP) Human TGR5 (NCI-H716 cells)): > 200 µM | EC50 (Human TGR5; Table 3, cross species, read-out: hTGR5 EC50): > 200 µM | EC50 (PR): > 300 µM | EC50 (PXR): > 300 µM | EC50 (mFXR): 0.6 ± 0.02 µM | EC50 (HepG2 cells [3]): > 300 µM | LogPA- (1-octanol-water partition coefficient) [4]: 1.8 | IC50 (CYP2C9): > 10 µM | EC50 (GR): > 300 µM | EC50 (mTGR5): > 200 µM | EC50 (VDR): > 300 µM | IC50 (CYP1A2): > 10 µM | EC50 (Pgp): > 300 µM | IC50 (CYP2E1): > 10 µM | EC50 (RXRα): > 300 µM | IC50 (CYP3A4; Blue Substrate, read-out: CYP3A4 (Blue Substrate) IC50): > 10 µM | IC50 (CYP3A4; Green Substrate, read-out: CYP3A4 (Green Substrate) IC50): > 10 µM | EC50 (dFXR): 1.65 ± 0.05 µM

CMC (Critical Micellar Concentration) [1]: 2.9 mM | solubility (Water solubility): 9 mM (≈ 3.79 mg/mL) | LogPA- (1-octanol-water partition coefficient) [4]: 2.5 | STCMC (Surface Tension at CMC) (Surface tension at CMC): 43.2-48.8
Structure (SMILES): CC[C@H]1[C@@H](O)[C@@H]2[C@H](CC[C@]3(C)[C@@H]([C@H](C)CCC(=O)O)CC[C@@H]23)[C@@]2(C)CC[C@@H](O)C[C@@H]12 [Compound A, 6α-ethyl-3α,7α-dihydroxy-5β-cholan-24-oic acid]

Structure (SMILES): CCC1C(O)C2C3CCC(C(C)CCOS(=O)(=O)O)C3(C)CCC2C2(C)CCC(O)CC12 (stereo not drawn) [Compound B, 6α-ethyl-3α,7α,23-trihydroxy-24-nor-5β-cholan-23-sulfate sodium salt]
LogPA- (1-octanol-water partition coefficient) [4]: 2.0

Structure (SMILES): CC[C@H]1[C@@H](O)[C@@H]2[C@H](C[C@H](O)[C@]3(C)[C@@H]([C@H](C)C[C@H](C)C(=O)O)CC[C@@H]23)[C@@]2(C)CC[C@@H](O)C[C@@H]12 [Compound C, 6α-ethyl-23(S)-methyl-3α,7α,12α trihydroxy-5β-cholan-24-oic acid]
CMC (Critical Micellar Concentration) [1]: 2 mM | solubility (Water solubility): 99 mM (≈ 44.6 mg/mL) | LogPA- (1-octanol-water partition coefficient) [4]: 1.4 | STCMC (Surface Tension at CMC) (Surface tension at CMC): 50.1

Structure (SMILES): CC[C@H]1[C@@H](O)C2C3CC[C@H]([C@H](C)C[C@H](C)C(=O)O)[C@@]3(C)CCC2[C@@]2(C)CC[C@@H](O)C[C@@H]12 (stereo partly drawn) [Compound D, 6α-ethyl-23(R)-methyl chenodeoxycholic acid]
solubility (Water solubility): 15 mM (≈ 6.52 mg/mL) | LogPA- (1-octanol-water partition coefficient) [4]: 2.9

Structure (SMILES): CC[C@H]1[C@@H](O)C2C3C[C@H](O)[C@H]([C@H](C)CCC(=O)O)[C@@]3(C)CCC2[C@@]2(C)CC[C@@H](O)C[C@@H]12 (some centres unmarked) [Compound E]
CMC (Critical Micellar Concentration) [1]: 5.9 mM | solubility (Water solubility): 120 mM (≈ 52.4 mg/mL) | LogPA- (1-octanol-water partition coefficient) [4]: 1.6 | STCMC (Surface Tension at CMC) (Surface tension at CMC): 52.4

Structure (SMILES): CC[C@H]1[C@@H](O)C2C3CC[C@H]([C@H](C)CCC(=O)O)[C@@]3(C)C[C@H](O)C2[C@@]2(C)CC[C@@H](O)C[C@@H]12 (stereo partly drawn) [Compound F, 3α,7α,11β-dihydroxy-6α-ethyl-5β-cholan-24-oic acid]
solubility (Water solubility): 143 to 150 mM (≈ 62.4 to 65.5 mg/mL) | LogPA- (1-octanol-water partition coefficient) [4]: 0.8
